Patent US20200024315A1, “ANTIMICROBIAL PEPTIDES AND METHODS OF TREATING GRAM-NEGATIVE PATHOGENS” (THE REGENTS OF THE UNIVERSITY OF COLORADO, a body corporate, priority 2017, published 2020)
Square brackets hold non-standard residues; d marks the D form. Orn = NCCC[C@H](N)C(=O)O

Assays:
[1] = tested on: A. baumannii compared to P. aeruginosa; test: Selectivity (MICGM P. aeruginosa/MICGM A. baumannii); format: cell-based, Acinetobacter baumannii
[2] = Circular dichroism (CD) spectroscopy, characterization of helical structure; format: physicochemical; details: for α-helical content (% helix) in aqueous conditions: aqueous benign buffer pH 7.0, 5° C.; for helical structure in hydrophobic medium containing 50% TFE: buffer pH 7.0 / 50% TFE, 5° C.; for inducible helical structure Δ[Θ]222 nm TFE-Aqueous: difference 50% TFE minus aqueous buffer
Description: The mean residue molar ellipticities of peptides were determined by circular dichroism (CD) spectroscopy, using a Jasco J-815 spectropolarimeter (Jasco Inc. Easton, Md., USA) at 5° C. under benign (non-denaturing) conditions (50 mM NaH2PO4/Na2HPO4/100 mM KCl, pH 7.0), hereafter referred to as benign buffer, as well as in the presence of an alpha-helix inducing solvent, 2,2,2-trifluoroethanol, TFE, (50 mM NaH2PO4/Na2HPO4/100 mM KCl, pH 7.0 buffer/50% TFE). A 10-fold dilution of an approximately 500 microM stock solution of the peptide analogs was loaded into a 0.1 cm quartz cell and its ellipticity scanned from 195 to 250 nm. Peptide concentrations were determined by amino acid analysis.

human erythrocytes = test: Hemolytic activity against human erythrocytes; format: cell-based; details: 1% human erythrocytes, 18 h, 37° C.
Description: Peptide samples (concentrations determined by amino acid analysis) were added to 1% human erythrocytes in phosphate-buffered saline (100 mM NaCl, 80 mM Na2HPO4, 20 mM NaH2PO4, pH 7.4) and the reaction mixtures were incubated at 37° C. for 18 h in microtiter plates. Two-fold serial dilutions of the peptide samples were carried out. This determination was made by withdrawing aliquots from the hemolysis assays and removing unlysed erythrocytes by centrifugation (800×g). Hemoglobin release was determined spectrophotometrically at 570 nm. The control for 100% hemolysis was a sample of erythrocytes treated with water. The control for no release of hemoglobin was a sample of 1% erythrocytes without any peptide added. Since erythrocytes were in an isotonic medium, no detectable release (<1% of that released upon complete hemolysis) of hemoglobin was observed from this control during the assay. The hemolytic activity is generally determined as the peptide concentration that causes 50% hemolysis of erythrocytes after 18 h (HC50). HC50 was determined from a plot of percent lysis versus peptide concentration (microM). If 50% hemolysis could not be reached, the inventors used HC30 values (30% hemolysis).

Pseudomonas aeruginosa = test: Antimicrobial activity against Pseudomonas aeruginosa; format: cell-based
Description: In the current study de novo designed AMPs were tested against seven diverse clinical isolates of the Gram-negative pathogen A. baumannii and seven A. baumannii strains resistant to polymyxin B and polymyxin E (Colistin). In addition, the inventors tested these AMPs against six diverse clinical isolates of the Gram-negative pathogen, P. aeruginosa, and nine Gram-positive methicillin-sensitive S. aureus clinical isolates and eight Gram-positive methicillin/oxacillin-resistant S. aureus strains. This testing allows for the determination of pathogen selectivity between Gram-negative and Gram-positive pathogens as the location of the positively charged residues on the polar face is varied.
The minimal inhibitory concentration (MIC) is defined as the lowest peptide concentration that inhibited bacterial growth. MICs were measured by a standard microtiter dilution method in Mueller Hinton (MH) medium. Briefly, cells were grown overnight at 37° C. in MH broth and were diluted in the same medium. Serial dilutions of the peptides were added to the microtiter plates in a volume of 50 microL, followed by the addition of 50 microL of bacteria to give a final inoculum of 5×10^5 colony-forming units (CFU)/mL. The plates were incubated at 37° C. for 24 h, and the MICs were determined.

[3] = Temperature profiling in RP-HPLC (peptide self-association); format: physicochemical; details: RP-HPLC pH 2, 5° C.-77° C., maximum change in retention time relative to random coil standards
Excerpt: Peptide self-association, the ability to oligomerize/dimerize in aqueous solution, is an important parameter that can improve antimicrobial activity while removing toxicity. The inventors hypothesize that the monomeric random-coil antimicrobial peptides in aqueous solution are best suited to pass through a polysaccharide capsule, the outer membrane lipopolysaccharide and the cell wall peptidoglycan layer of microorganisms prior to penetration into the cytoplasmic membrane, induction of alpha-helical structure and disruption of membrane structure to kill target cells. […] In the present study, the ability of the AMPs to self-associate was determined by a technique developed in the inventors' laboratory, referred to as RP-HPLC temperature profiling at pH 2 over the temperature range of 5° C. to 80° C. […]
Purified peptides were analyzed on an Agilent 1200 series liquid chromatograph for temperature profiling using a Zorbax 300 SB-C8 column (150 mm×2.1 mm I.D.; 5 μm particle size, 300 Å pore size) from Agilent Technologies. […]
FIGS. 5-8 illustrate self-association profiles of the α-helical AMP analogs as determined by temperature profiling in RP-HPLC. […]

D26 (K13A, K16A) = test: RP-HPLC temperature profiling 5-77 C, pH 2; self-association (monomer-dimer) of the peptide
D52 = test: as above

For “Ac-KLKSLLKTLSKAKKKKLKTLLKALSK-NH2 [D16, reference compound]”, which “selectivity factor (MICGM P. aeruginosa/MICGM A. baumannii)” value [1] is on record?
The value was 2.7.

For “Ac-ALKKLLSTLSSA[Orn]SS[Orn]LSTLLKALKK-NH2 [D56]”, which “α-helical content (% helix) in aqueous conditions” value (“α-helical content (% helix)” for short) [2] is on record?
The value was 3.5%.

What about the “helical structure in hydrophobic medium containing 50% TFE” value [2] of the same molecule?
Its value is 27.2%.

Which results are given for Ac-KLKSLLSTLSSAKKKKLSTLLSALSK-NH2 [D26]?
α-helical content (% helix) in aqueous conditions [2]: 8.9%; hemolytic activity HC50 (human erythrocytes): > 1776 µM; improvement in selectivity (MICGM P. aeruginosa/MICGM A. baumannii) [1]: 25 fold; activity against Pseudomonas aeruginosa (in words) (Pseudomonas aeruginosa): inactive

With “Ac-AL[Orn][Orn]LLSTLSSAKSSKLSTLL[Orn]AL[Orn][Orn]-NH2 [D59]” as the molecule, how does the “α-helical content (% helix)” value [2] read?
Its value is 6.9%.

And the “inducible helical structure Δ[Θ]222 nm TFE-Aqueous” value [2]?
Its value is 1061.

For “Ac-ALKKLLSTLSSAKSSKLSTLLKALKK-amide (Ac-ALKKLLSTLSSAKSSKLSTLLKALKK-NH2) [D52]”, which “α-helical content (% helix)” value [2] is on record?
Its value is 13.7%.

And the “helical structure in hydrophobic medium containing 50% TFE” value [2]?
Its value is 100%.

What about the “inducible helical structure Δ[Θ]222 nm TFE-Aqueous” value [2] of the same molecule?
The value was 1422.

And the “peptide self-association parameter PA” value [3]?
Its value is 7.78 min.

Which results are given for Ac-ALKKLLSTLSSARSSRLSTLLKALKK-NH2 [D58]?
α-helical content (% helix) in aqueous conditions [2]: 7.2%; inducible helical structure Δ[Θ]222 nm TFE-Aqueous [2]: 750

With “Ac-KLKSLLSTLSSAAKKALSTLLSALSK-NH2 [D26 (K13A, K16A)]” as the molecule, how does the “helical structure in aqueous buffer conditions (in words)” value ([2]; 50 mM potassium phosphate buffer, pH 7.0, 100 mM KCl) read?
Its value is “α-helical”.

B1: D26 (K13A, K16A) (peptide)
chain: Ac-[dK][dL][dK][dS][dL][dL][dS][dT][dL][dS][dS][dA][dA][dK][dK][dA][dL][dS][dT][dL][dL][dS][dA][dL][dS][dK]-NH2
Which PA (peptide self-association parameter) (D26 (K13A, K16A)) does the source give for B1 here?
Its PA (peptide self-association parameter) is 27 min.

B2: D52 (peptide)
chain: Ac-[dA][dL][dK][dK][dL][dL][dS][dT][dL][dS][dS][dA][dK][dS][dS][dK][dL][dS][dT][dL][dL][dK][dA][dL][dK][dK]-NH2
SMILES: CC(=O)N[C@H](C)C(=O)N[C@H](CC(C)C)C(=O)N[C@H](CCCCN)C(=O)N[C@H](CCCCN)C(=O)N[C@H](CC(C)C)C(=O)N[C@H](CC(C)C)C(=O)N[C@H](CO)C(=O)N[C@@H](C(=O)N[C@H](CC(C)C)C(=O)N[C@H](CO)C(=O)N[C@H](CO)C(=O)N[C@H](C)C(=O)N[C@H](CCCCN)C(=O)N[C@H](CO)C(=O)N[C@H](CO)C(=O)N[C@H](CCCCN)C(=O)N[C@H](CC(C)C)C(=O)N[C@H](CO)C(=O)N[C@@H](C(=O)N[C@H](CC(C)C)C(=O)N[C@H](CC(C)C)C(=O)N[C@H](CCCCN)C(=O)N[C@H](C)C(=O)N[C@H](CC(C)C)C(=O)N[C@H](CCCCN)C(=O)N[C@H](CCCCN)C(N)=O)[C@H](C)O)[C@H](C)O
Which PA (peptide self-association parameter) (D52) does the source give for B2 here?
The PA (peptide self-association parameter) was 7.78 min.
